Paper PMC4099323, “Inhibition of Catalase by Tea Catechins in Free and Cellular State: A Biophysical Approach” (PLoS ONE, 2014)

Tests used:
[1] = biological target: T1, Catalase (from bovine liver) (Bos taurus, UniProt P00432); experiment: Fluorimetric titration: quenching of catalase fluorescence by catechins; format: binding
T1 construct: Catalase (from bovine liver); purchased Sigma-Aldrich, St. Louis, MO, USA; host or cells: bovine liver
T1 sequence (P00432 2-527 limits assumed): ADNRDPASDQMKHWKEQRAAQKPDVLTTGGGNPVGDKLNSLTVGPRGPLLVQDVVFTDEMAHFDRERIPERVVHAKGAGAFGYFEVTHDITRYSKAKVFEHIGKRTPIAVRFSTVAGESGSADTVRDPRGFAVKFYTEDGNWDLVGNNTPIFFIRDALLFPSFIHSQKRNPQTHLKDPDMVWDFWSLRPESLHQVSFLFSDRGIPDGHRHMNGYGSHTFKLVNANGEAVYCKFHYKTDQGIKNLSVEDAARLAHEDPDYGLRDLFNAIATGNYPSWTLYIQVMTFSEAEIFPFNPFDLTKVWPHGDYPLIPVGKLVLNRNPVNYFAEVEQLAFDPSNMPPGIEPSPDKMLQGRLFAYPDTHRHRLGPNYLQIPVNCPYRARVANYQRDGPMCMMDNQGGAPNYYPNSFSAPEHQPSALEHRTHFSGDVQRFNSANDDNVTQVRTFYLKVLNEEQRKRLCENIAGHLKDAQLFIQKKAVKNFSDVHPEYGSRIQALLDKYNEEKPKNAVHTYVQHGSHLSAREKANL
Method: Fluorescence spectra were recorded using a Perkin Elmer fluorescence spectrophotometer (LS-55) equipped with 150 W Xenon flash lamp and using fluorescence-free quartz cell of 1 cm path length. The widths of excitation and emission slits were set to 5 nm, and scan speed (100 nm/min), excitation voltage were kept constant for each data set. Quantitative analysis of the potential interaction between catechins and catalase was performed by the fluorimetric titration technique. Briefly, solution of catalase (5×10^−7 M, as calculated using molar extinction coefficient of 3.24×10^5 M^−1 s^−1 at 405 nm for catalase) in 50 mM phosphate buffer of pH 7.4 was titrated in cuvette by successive additions of individual catechin solution aliquots from a stock of 5×10^−7 M. Fluorescence emission spectra were recorded in the wavelength range of 290–450 nm upon excitation at 280 nm when catalase samples were titrated with catechins. All experiments were carried out at room temperature. Fluorescence intensity was measured at 340 nm of protein emission spectra. Fluorescence spectra of individual catechins in buffer were recorded as blanks under the same experimental conditions and subtracted from the corresponding sample to correct the fluorescence background.
The binding constants and the number of binding sites involved were calculated according to the relation: log (F0–F)/F = log K+n log [Q], where K is the binding constant and n is the number of binding sites, F0 is the fluorescence intensity of free catalase, F is the consecutive fluorescence on addition of catechins, and [Q] is the concentration of the quencher (here catechins). A plot of log (F0– F)/F and log [Q] was used to determine the values of K and n from the intercept and the slope respectively (Figure 3 A–D).

[2] = biological target: G3BP1; settings: read-out: dissociation constant (K d); cited from earlier work
[3] = biological target: DNA methyltransferase; settings: KYSE 510 human esophageal cancer cells; cited from earlier work
[4] = tested on: CDK4; settings: MCF7 breast cancer cell lines, 30 µM; cited from earlier work
[5] = biological target: human dihydrofolate reductase (DHFR); parameters: method as in PMID 20054477; settings: fluorescence quenching; cited from earlier work
[6] = biological target: vimentin; settings: read-out: dissociation constant (K d); cited from earlier work
[7] = biological target: T1, Catalase (from bovine liver); experiment: Inhibition of pure catalase activity (cell free), H2O2 decay at 240 nm; format: biochemical
Method: Absorption spectrophotometer (Varian, CARY 100 Bio, USA) was used to determine pure catalase activity (cell free). Briefly, 900 µl of H2O2 (0.036%) was taken in quartz cell of 1 cm path length and its absorbance was recorded at 240 nm. To the solution, 100 µl of catalase (50 U/ml) was added and the decrease in absorbance was recorded at 10 s interval. This experiment was performed in presence 50 µM each of four catechins and 3-AT separately to evaluate the inhibitory effect of catechins on catalase activity, after 1 h incubation.
On addition of catechins, a decrease in rate of H2O2 degradation i.e. a decrease in pure catalase activity was observed which is represented in Figure 6A. Catechins with galloyl moiety (ECG and EGCG) reduced catalase activity more than its non-gallated counterparts i.e. EGC and EC. However, Inhibition by EGCG is the closest to inhibition by known catalase inhibitor 3-AT.

[8] = tested on: phosphorylation of JNK, JUN, MEK1, MEK2; settings: JB6 epidermal cell lines, 5–20 µM; cited from earlier work
[9] = tested on: cyclin dependent kinase 2 (CDK2); settings: MCF7 breast cancer cell lines, 30 µM; cited from earlier work

## O=C(O[C@@H]1Cc2c(O)cc(O)cc2O[C@@H]1c1cc(O)c(O)c(O)c1)c1cc(O)c(O)c(O)c1 [EGCG, (−)-epigallocatechin gallate]
[1]; double logarithmic plot, 25°C
  number of binding sites n: single binding site
[1]; double logarithmic plot, 25°C, pH 7.4, λex 280 nm
  binding constant K with catalase (fluorimetric): 2.27e+06 M⁻¹
[1]; from the fluorimetric binding constant, read-out: K d to catalase
  Kd: 440 nM
[2]
  Kd: 400 nM
[3]
  Ki: 7000 nM
[4]
  inhibition of CDK4: inhibited
[5]
  Kd: 900 nM
[6]
  Kd: 3.3 nM
[7]; Lineweaver-Burk plot, uninhibited 0.0081
  y-intercept 1/V0 of inhibited catalase: 0.3635 min/µM
[7]; catalase – H2O2 reaction
  type of inhibition (Lineweaver-Burk plot): uncompetitive
[7]; pure catalase, 50 µM each, 1 h incubation
  order of inhibition of catalase activity: 3-AT>EGCG>ECG>EC>EGC
[8]
  inhibition of phosphorylation of JNK, JUN, MEK1, MEK2: inhibited
[9]
  inhibition of CDK2: inhibited
